Experimental data reported in patent US20060241097A1, “Pesticidal substituted 1,2,5-thiadiazole derivatives” (FMC CORPORATION, priority 2003, published 2006).
Counter-ions that a name gives are not always drawn. Like-named read-outs stand apart in the source and are kept apart here.

Key:
[1] = test system: two-spotted spider mite (Tetranychus urticae); assay: Foliar test against two-spotted spider mite on pinto bean seedlings; assay type: in vivo; conditions: foliar spray, 72 hours
Procedure: Candidate pesticides, i.e., acaricides of the present invention were evaluated on 7-8 day old pinto bean seedlings infested with two-spotted spider mite (Tetranychus urticae) in comparison with the corresponding 1,2,4-thiadiazole derivatives. The test was conducted using the test method set forth below:
One to two hours prior to the test, leaf cuttings containing about 50-75 adult mites were placed on leaves of each of duplicate pinto bean seedlings for each rate of application of candidate acaricide. Solutions of the candidate acaricide were prepared for testing by serial dilution of a standard solution comprised of an appropriate amount of acaricide in a water/acetone solvent, which contained a small amount of a surfactant. Rates of application of candidate acaricide may range from about 1000 ppm, or more, to about 1 ppm, or less, in a rate series of, for example, 1000 ppm, 300 ppm, 100 ppm, 30 ppm, 10 ppm, 3 ppm, and 1 ppm. The solutions containing each rate of application of candidate acaricide were then sprayed to run-off to both the upper and lower portions of the leaves of the mite-infested pinto bean seedlings. Each test of foliar-applied candidate acaricide included appropriate standard acaricide of known acaricidal activity and blank treatments to aid in assessing the acaricidal activity of the candidate acaricide. Upon completion of the spraying with candidate acaricide, the pinto bean seedlings were maintained in a growth chamber for a period of 72 hours. After this time, the seedlings were examined for dead acarids. […] Upon completion of the evaluation of the test, the percent control of the two-spotted spider mite for each rate of application of the candidate acaricide was determined by comparison of the total number of dead and motibund acarids to the total number of acarids in the test.

[2] = test system: cotton aphid (Aphis gossypii); assay: Foliar test against cotton aphid on cotton seedlings; assay type: in vivo
Procedure: Candidate pesticides, i.e., insecticides of the present invention were evaluated on 7-10 day old cotton seedlings infested with cotton aphid (Aphis gossypii). At least 12 hours prior to the test, leaf cuttings containing about 50 adult aphids were placed on leaves of each of duplicate cotton seedlings for each rate of application of candidate insecticide. Solutions of the candidate insecticide were prepared for testing by serial dilution of a standard solution comprised of an appropriate amount of insecticide in a water/acetone solvent, which contained a small amount of a surfactant. Rates of application of candidate insecticide may range from about 1000 ppm, or more, to about 3 ppm, or less, in a rate series of, for example, 1000 ppm, 100 ppm, 30 ppm, 10 ppm, and 3 ppm. The solutions containing each rate of application of candidate insecticide were then sprayed to run-off to both the upper and lower portions of the leaves of the aphid-infested cotton seedlings. Each test of foliar-applied candidate insecticide included appropriate standard insecticide of known insecticidal activity and blank treatments to aid in assessing the insecticidal activity of the candidate insecticide. Upon completion of the spraying with candidate insecticide, the cotton seedlings were maintained in a growth chamber for a period of 72 hours. After this time, the seedlings were examined for dead insects. Insects were classified as dead if they were off-color or brown and desiccated. Upon completion of the evaluation of the test, the percent mortality of the cotton aphid for each rate of application of the candidate insecticide was determined by comparison of the total number of dead insects to the total number of insects in the test.

[3] = cotton aphid, foliar spray, 1000 ppm, 72 hours
[4] = Aphis gossypii, cotton aphid, foliar spray, 300 ppm, 72 hours, read-out: Percent Mortality
[5] = Aphis gossypii, cotton aphid, foliar spray, 1000 ppm, 72 hours, read-out: Percent Mortality
[6] = Aphis gossypii, foliar, 72 h, read-out: Percent Mortality
[7] = cotton aphid, foliar spray, 300 ppm, 72 hours

With `Clc1nsnc1C1(Cl)CN2CCC1CC2` (centres unmarked) the melting point was 93 to 95 °C.
Compound `Clc1nsnc1C1=CC=CN(Cc2ccccc2)C1` (as salt: salt) [Compound 162, 3-chloro-4-(1-benzylpyrid-3-yl)-1,2,5-thiadiazole] has a melting point of 47 to 49 °C.
For `CN1CCC=C(c2ncns2)C1` [A, reference compound], the “Percent Control” value ([1]; 300 ppm) was “completely inactive”.
With `Cc1nsc(C2=CCCN(C)C2)n1` [B, reference compound] the “Percent Control” value ([1]; 300 ppm) was “completely inactive”.
`Clc1nsnc1C1=CCCN(Cc2ccccc2)C1` [Compound 2, 3-chloro-4-[1-benzyl(1,2,5,6-tetrahydropyrid-3-yl)]-1,2,5-thiadiazole] showed a mortality at 1000 ppm ([2]; Aphis gossypii, cotton aphid, foliar spray, 1000 ppm, 72 hours, read-out: Percent Mortality (LP class)) greater than 0%.
With `CCOC(=O)N1CCC=C(c2nsnc2Cl)C1` [Compound 3] the “Percent Mortality (LP class)” value [2, 3] was “LP (LP means that some activity was observed because the population of the cotton aphids was lowered but a value was not calculated.)”.
`CN1CCC=C(c2cnsn2)C1` [Compound 4, 3-[1-methyl(1,2,5,6-tetrahydropyrid-3-yl)]-1,2,5-thiadiazole] showed a mortality at 100 ppm ([2]; Aphis gossypii, cotton aphid, foliar spray, 100 ppm, 72 hours, read-out: Percent Mortality) of 24%, a mortality at 300 ppm [2, 4] of 73% and a mortality at 1000 ppm [2, 5] of 86%. For the same compound, the “Percent Control” value ([1]; 10 ppm) was 49%, the “Percent Control” value ([1]; 30 ppm) was 96% and the “Percent Control” value ([1]; 100 ppm) was 100%. The “Percent Control” value ([1]; 300 ppm) was 100% and the “Percent Control” value ([1]; 1000 ppm) was 100%.
For `CN1CCC=C(c2nsnc2F)C1` [Compound 23, 3-fluoro-4-(1-methyl-1,2,5,6-tetrahydropyrid-3-yl)-1,2,5-thiadiazole], the mortality at 1000 ppm ([2]; Aphis gossypii, cotton aphid, foliar spray, 1000 ppm, 72 hours, average of two tests, read-out: Percent Mortality) was 11%, the “Percent Control” value ([1]; 10 ppm) was 35% and the “Percent Control” value ([1]; 30 ppm) was 95%. For the same compound, the “Percent Control” value ([1]; 100 ppm) was 98% and the “Percent Control” value ([1]; 300 ppm) was 100%.
For `CCCCOc1nsnc1C1=CCCN(C)C1` [Compound 60], the “Percent Mortality (LP class)” value [2, 3] was “LP (LP means that some activity was observed because the population of the cotton aphids was lowered but a value was not calculated.)”, the “Percent Control” value ([1]; 300 ppm) was 10% and the “Percent Control” value ([1]; 1000 ppm) was 41%.
With `CN1CCC=C(c2nsnc2Oc2ccc(F)cc2)C1` [Compound 63] the “Percent Mortality” value ([2]; cotton aphid, foliar spray, 1000 ppm, 72 hours, average of two tests) was 48%.
With `C#CCOc1nsnc1C1=CCCN(C)C1` [Compound 66] the “Percent Control” value ([1]; 100 ppm) was 52%, the “Percent Control” value ([1]; 300 ppm) was 83% and the “Percent Control” value ([1]; 1000 ppm) was 98%.
With `CC#CCOc1nsnc1C1=CCCN(C)C1` [Compound 67] the “Percent Control” value ([1]; 300 ppm) was 100% and the “Percent Control” value ([1]; 1000 ppm) was 100%.
With `C#CCCOc1nsnc1C1=CCCN(C)C1` [Compound 68] the “Percent Mortality (LP class)” value [2, 3] was “LP (LP means that some activity was observed because the population of the cotton aphids was lowered but a value was not calculated.)”.
In the case of `CCCSc1nsnc1C1=CCCN(C)C1` [Compound 71], the “Percent Control” value ([1]; 300 ppm) is reported as 20%.
With `CCCCSc1nsnc1C1=CCCN(C)C1` [Compound 72] the “Percent Control” value ([1]; 300 ppm) was 4% and the “Percent Control” value ([1]; 1000 ppm) was 34%.
In the case of `CCCCCSc1nsnc1C1=CCCN(C)C1` [Compound 73], the “Percent Mortality (LP class)” value [2, 3] is reported as “LP (LP means that some activity was observed because the population of the cotton aphids was lowered but a value was not calculated.)”.
For `CCCCCCSc1nsnc1C1=CCCN(C)C1` [Compound 75], the “Percent Mortality” value [2, 3] was 25%.
For `C=CCSc1nsnc1C1=CCCN(C)C1` [Compound 77], the “Percent Control” value ([1]; 300 ppm) was 13%.
In the case of `Clc1nsnc1C1CN2CCC1CC2` (centres unmarked) [Compound 102, 3-chloro-4-quinuclidin-3-yl-1,2,5-thiadiazole], the mortality at 300 ppm [2, 6] is reported as 8%, the mortality at 1000 ppm [2, 6] is reported as 33% and the “Percent Control” value ([1]; 100 ppm) is reported as 13%. The “Percent Control” value ([1]; 300 ppm) was 27%.
For `COc1nsnc1C1CN2CCC1CC2` (centres unmarked) [Compound 107], the “Percent Mortality” value [2, 7] was 12% and the “Percent Mortality” value [2, 3] was 24%.
For `CCOc1nsnc1C1CN2CCC1CC2` (centres unmarked) [Compound 108], the “Percent Mortality” value [2, 7] was 3% and the “Percent Mortality” value [2, 3] was 17%.
In the case of `CCCOc1nsnc1C1CN2CCC1CC2` (centres unmarked) [Compound 109], the “Percent Control” value ([1]; 300 ppm) is reported as 15% and the “Percent Control” value ([1]; 1000 ppm) is reported as 65%.
For `CCCCOc1nsnc1C1CN2CCC1CC2` (centres unmarked) [Compound 110, 3-butoxy-4-quinuclidin-3-yl-1,2,5-thiadiazole], the mortality at 1000 ppm ([2]; Aphis gossypii, foliar, 72 h, read-out: Percent Mortality (LP class)) was greater than 0% and the “Percent Control” value ([1]; 300 ppm) was 34%.
`Cc1nsnc1-c1cccnc1` [Compound 132, 3-methyl-4-pyrid-3-yl-1,2,5-thiadiazole] showed a mortality at 300 ppm [2, 4] of 35% and a mortality at 1000 ppm [2, 5] of 82%.
For `CCCOc1nsnc1C1=CC=CNC1` [Compound 140], the “Percent Mortality (LP class)” value [2, 3] was “LP (LP means that some activity was observed because the population of the cotton aphids was lowered but a value was not calculated.)”.
